According to paper PMC9037180, “Ligand-based design and synthesis of N'-Benzylidene-3,4-dimethoxybenzohydrazide derivatives as potential antimicrobial agents; evaluation by in vitro, in vivo, and in silico approaches with SAR studies” (Journal of Enzyme Inhibition and Medicinal Chemistry, 2022):
Converted amounts (≈) assume the structure as drawn. Like-named read-outs stand apart in the source and are kept apart here.

Assays:
[1] = tested on: NFKB2; type: in vivo, rats; conditions: Mean ± SE
Description: Rats were divided randomly into equal fifteen groups, each containing 9 rats as follows: • Group 1: Rats were kept on standard laboratory chow and water ad libitum to serve as a control. • Group 2: Rats have injected IP with sterile distilled water (4ml/kg) daily for one week to serve as a control. • Group 3: Rats have injected IP with DEMSO (dimethyl sulfoxide) (4 ml/kg) daily for one week to serve as a control. • Group 4: Rats have injected IP with 4h (1.9 mg/kg) daily for one week. • Group 5: Rats have injected IP with 4h (3.8 mg/kg) daily for one week. • Group 6: Rats have injected IP with 4i (1.9 mg/kg) daily for one week. • Group 7: Rats have injected IP with 4i (3.8 mg/kg) daily for one week. • Group 8: Rats were infected by a single IM injection of S. aureus strain [1.0 ml) 1 × 10^7) colony-forming units]. • Group 9: Rats have injected IP with 4h (1.9 mg/kg) daily for one week on the 7th day after induction of infection by a single IM injection of S. aureus strain [1.0 ml (1 × 10^7) colony-forming units. • Group 10: Rats have injected IP with 4h (3.8 mg/kg) daily for one week on the 7th day after induction of infection by a single IM injection of S. aureus strain [1.0 ml (1 × 10^7) colony-forming units]. • Group 11: Rats were infected by a single IM injection of S. typhi strain [1.0 ml (1 × 10^7) colony forming units). • Group 12: Rats have injected IP with 4h (1.9 mg/kg) daily for one week. on the 7th day after induction of infection by a single IM injection of S. typhi strain [1.0 ml (1 × 10^7) colony-forming units]. • Group 13: Rats have injected IP with 4h (3.8 mg/kg) daily for one week on the 7th day after infection by a single IM injection of S. typhi strain [1.0 ml (1 × 10^7) colony-forming units]. • Group 14: Rats have injected IP with 4i (1.9 mg/kg) daily for one week. on the 7th day after induction of infection by a single IM injection of S. typhi strain [1.0 ml (1 × 10^7) colony-forming units]. • Group 15: Rats have injected IP with 4i (3.8 mg/kg) daily for one week. on the 7th day after induction of infection by a single IM injection of Salmonella strain [1.0 ml (1 × 10^7) colony-forming units].
Immunohistochemistry (IHC) was performed on paraffin sections and mounted on positively charged slides to detect caspase-3 as an indicator for apoptosis and nuclear factor kappa-light-chain-enhancer of activated B cells (NFKB2) for inflammation by using the avidin-biotin-peroxidase complex (ABC) method. The exact methodology was carried out as previously described in detail.
Caspase-3 and NFKB2 immunostaining were measured as area % in a standard measuring frame in representative five fields for each subject (liver and kidneys) in all groups using 100x magnification via light microscopy transferred to the screen. […]

[2] = tested on: S. typhi; test: Minimal bactericidal concentration (MBC); type: cell-based; conditions: Salmonella enterica
[3] = Cytotoxicity on cells using MTT assay; type: cell-based; conditions: African green monkey, Vero cells (normal mammalian cell line)
Description: The newly synthesised compounds were looked deeply into their efficacy using in silico, in vitro, and in vivo approaches. On the other hand, the cytotoxicity assay was performed for the tested compounds using a normal mammalian Vero cell line by the MTT assay[31]^,[32].
Moreover, the cytotoxicity values of the target compounds were determined to calculate their corresponding IC50 values through the MTT assay. The IC50 value indicates the compound’s concentration that is required to inhibit 50% of the target cells.
The MTT (3–(4,5-dimethylthiazol-2-yl)-2,5-diphenyltetrazolium bromide) tetrazolium reduction assay protocol was applied to determine the cytotoxicity of the target compounds (4a–j) on cells.

[4] = tested on: A. baumanii; test: Minimal bactericidal concentration (MBC); type: cell-based; conditions: Acinetobacter baumannii
Description: (§1) After determining the MIC for the target compounds, the minimal bactericidal concentration (MBC) for each compound that is required to kill each one of the above-mentioned microorganisms was assessed.

[5] = tested on: C. albicans; test: Minimal bactericidal concentration (MBC); type: cell-based; conditions: Candida albicans
Description: as §1

COc1ccc(C(=O)NN=Cc2ccc3ccccc3n2)cc1OC [Compound 4i, N'-(quinolin-2-ylmethylene)-3,4-dimethoxybenzohydrazide]
NFKB2, Kidney ([1]; S. typhi infected rats, 1.9 mg/kg IP daily for one week): 28.693 ± 0.4494 area %
NFKB2, Kidney ([1]; S. typhi infected rats, 3.8 mg/kg IP daily for one week): 11.91 ± 1.04 area %
NFKB2, Kidney ([1]; uninfected rats, 1.9 mg/kg IP daily for one week): 0.7513 ± 0.0671 area %
NFKB2, Kidney ([1]; uninfected rats, 3.8 mg/kg IP daily for one week): 0.4087 ± 0.08844 area %
MBC [2]: 186 µM (≈ 62.5 µg/mL)
IC50 [3]: 305 µM
MBC [4]: 186 µM (≈ 62.5 µg/mL)
MBC [5]: 186 µM (≈ 62.5 µg/mL)
